Measurements taken from patent US4495179A, “A51568 Antibiotic and process for producing thereof” (Eli Lilly and Company, priority 1983, dated 1985).
Converted amounts (≈) assume the structure as drawn.

What was measured:
[1] = system: Bacteroides corrodens; assay: Agar-dilution MIC, anaerobic bacteria (Table 10); type: cell-based; conditions: Bacteroides corrodens 1874
[2] = system: Fusobacterium symbiosum; assay: Agar-dilution MIC, anaerobic bacteria (Table 10); type: cell-based; conditions: Fusobacterium symbiosum 1470
[3] = system: Strep. pneumoniae Park I; assay: In vivo protection against experimental bacterial infection; conditions: mice, two doses subcutaneously
Procedure: (§1) Antibiotic A51568 has shown in vivo antimicrobial activity against experimental bacterial infections. When two doses of test compound were administered subcutaneously to mice in illustrative infections, the activity observed is measured as an ED50 [effective dose in mg/kg to protect fifty percent of the test animals: See Warren Wick et al., J. Bacteriol. 81, 233-235 (1961)]. The ED50 values observed for antibiotic A51568 are as follows: […]

[4] = system: Staph. aureus 3055; assay: as above; conditions: mice, Staph. aureus 3055 infection, two doses subcutaneously
Procedure: as §1

[5] = system: Strep. pyogenes C203; assay: as above; conditions: mice, two doses subcutaneously
Procedure: as §1

[6] = system: Peptostreptococcus intermedius; assay: Agar-dilution MIC, anaerobic bacteria (Table 10); type: cell-based; conditions: Peptostreptococcus intermedius 1264
[7] = system: Peptococcus prevoti; assay: Agar-dilution MIC, anaerobic bacteria (Table 10); type: cell-based; conditions: Peptococcus prevoti 1281
[8] = system: Clostridium difficile; assay: Agar-dilution MIC, anaerobic bacteria (Table 10); type: cell-based; conditions: Clostridium difficile 2994
Text: (§2) Antibiotic A51568 has been tested and found to be active against a number of anaerobic bacteria, as recorded in Table 10, which follows, the MIC values having been determined by the agar-dilution method.

[9] = system: Clostridium septicum; assay: Agar-dilution MIC, anaerobic bacteria (Table 10); type: cell-based; conditions: Clostridium septicum 1128
Text: as §2

[10] = system: Streptococcus pyogenes; assay: Standard agar-dilution assay, aerobic bacteria (Table 9); type: cell-based; conditions: Streptococcus pyogenes C203, end point after 24 hours
Procedure: (§3) The in vitro activity of antibiotic A51568 against a number of aerobic bacteria has been determined using a standard agar-dilution assay. The results, determined by reading the end point after 24 hours, are recorded in Table 9, which follows.

[11] = system: Streptococcus pneumoniae; assay: as above; type: cell-based; conditions: Streptococcus pneumoniae Park I, end point after 24 hours
Procedure: as §3

[12] = system: Staphylococcus epidermidis; assay: as above; type: cell-based
Procedure: as §3

[13] = system: Escherichia coli; assay: as above; type: cell-based
Procedure: as §3

[14] = system: Staphylococcus aureus; assay: as above; type: cell-based
Procedure: as §3

[15] = system: Klebsiella pneumoniae; assay: as above; type: cell-based
Procedure: as §3

[16] = system: Streptococcus sp. Group D; assay: as above; type: cell-based
Procedure: as §3

[17] = system: Haemophilus influenzae; assay: as above; type: cell-based
Procedure: as §3

[18] = system: Fusobacterium necrophorum; assay: Agar-dilution MIC, anaerobic bacteria (Table 10); type: cell-based; conditions: Fusobacterium necrophorum 6054A
[19] = system: Streptococcus pyogenes; assay: Agar-dilution MIC, variety of bacteria (Table 8); type: cell-based
Procedure: (§4) The activity of antibiotic A51568 against a variety of bacteria, as determined by the agar-dilution method, is reported in Table 8, which follows, wherein the minimum inhibitory concentration (MIC) values are recorded.

[20] = system: Streptococcus pneumoniae; assay: Agar-dilution MIC, variety of bacteria (Table 8); type: cell-based
Procedure: as §4

[21] = system: Staphylococcus epidermidis; assay: Agar-dilution MIC, variety of bacteria (Table 8); type: cell-based
Procedure: as §4

[22] = system: Streptococcus sp. Group B; assay: Agar-dilution MIC, variety of bacteria (Table 8); type: cell-based
Procedure: as §4

[23] = system: Haemophilus parainfluenzae; assay: Agar-dilution MIC, variety of bacteria (Table 8); type: cell-based
Procedure: as §4

[24] = system: Staphylococcus aureus; assay: Agar-dilution MIC, variety of bacteria (Table 8); type: cell-based
Procedure: as §4

[25] = system: Streptococcus sp. Group D; assay: Agar-dilution MIC, variety of bacteria (Table 8); type: cell-based
Procedure: as §4

[26] = system: Haemophilus influenzae; assay: Agar-dilution MIC, variety of bacteria (Table 8); type: cell-based
Procedure: as §4

[27] = system: Bacteroides vulgatis; assay: Agar-dilution MIC, anaerobic bacteria (Table 10); type: cell-based; conditions: Bacteroides vulgatis 1211
[28] = system: Eubacterium aerofaciens; assay: Agar-dilution MIC, anaerobic bacteria (Table 10); type: cell-based; conditions: Eubacterium aerofaciens 1235
[29] = system: Clostridium perfringens; type: cell-based; conditions: Clostridium perfringens 81; Table 10
[30] = system: Bacteroides melaninogenicus; assay: Agar-dilution MIC, anaerobic bacteria (Table 10); type: cell-based
[31] = system: Bacteroides fragilis; assay: Agar-dilution MIC, anaerobic bacteria (Table 10); type: cell-based
[32] = system: Clostridium difficile; assay: Agar-dilution MIC, Clostridium difficile strains (Table 11); type: cell-based
Text: Antibiotic A51568 is also active against a number of strains of Clostridium difficile, as determined by the agar-dilution method.

[33] = system: Bacteroides thetaiotaomicron; assay: Agar-dilution MIC, anaerobic bacteria (Table 10); type: cell-based; conditions: Bacteroides thetaiotaomicron 1438
[34] = system: Peptococcus asaccharolyticus; assay: Agar-dilution MIC, anaerobic bacteria (Table 10); type: cell-based; conditions: Peptococcus asaccharolyticus 1302
[35] = system: Propionibacterium acnes; assay: Agar-dilution MIC, anaerobic bacteria (Table 10); type: cell-based; conditions: Propionibacterium acnes 79
[36] = system: Peptostreptococcus anaerobius; assay: Agar-dilution MIC, anaerobic bacteria (Table 10); type: cell-based; conditions: Peptostreptococcus anaerobius 1428

## CC(C)C[C@@H](N)C(=O)N[C@@H]1C(=O)N[C@@H](CC(N)=O)C(=O)N[C@H]2C(=O)N[C@H]3C(=O)N[C@H](C(=O)N[C@H](C(=O)O)c4cc(O)cc(O)c4-c4cc3ccc4O)[C@H](O)c3ccc(c(Cl)c3)Oc3cc2cc(c3O[C@@H]2O[C@H](CO)[C@@H](O)[C@H](O)[C@H]2O[C@H]2C[C@](C)(N)C(O)[C@H](C)O2)Oc2ccc(cc2Cl)[C@H]1O (some centres unmarked) [A51568, demethylvancomycin]
[1]
  MIC: 32 µg/mL (≈ 22.3 µM)
[2]
  MIC: 2 µg/mL (≈ 1.39 µM)
[3]
  ED50 (effective dose to protect fifty percent of the test animals): 2.71 mg/kg × 2
[4]
  ED50 (effective dose to protect fifty percent of the test animals): 1.79 mg/kg × 2
[5]
  ED50 (effective dose to protect fifty percent of the test animals): 3.03 mg/kg × 2
[6]
  MIC: 1 µg/mL (≈ 0.697 µM)
[7]
  MIC: 32 µg/mL (≈ 22.3 µM)
[8]
  MIC: 2 µg/mL (≈ 1.39 µM)
[9]
  MIC: 1 µg/mL (≈ 0.697 µM)
[10]
  MIC: 1 µg/mL (≈ 0.697 µM)
[11]
  MIC: 0.5 µg/mL (≈ 0.348 µM)
[12]; Staphylococcus epidermidis EPI1, end point after 24 hours
  MIC: 2 µg/mL (≈ 1.39 µM)
[12]; Staphylococcus epidermidis EPI2, end point after 24 hours
  MIC: 1 µg/mL (≈ 0.697 µM)
[13]; Escherichia coli EC14, end point after 24 hours
  MIC: > 128 µg/mL
[13]; Escherichia coli N10, end point after 24 hours
  MIC: > 128 µg/mL
[13]; Escherichia coli TEM, end point after 24 hours
  MIC: 128 µg/mL (≈ 89.2 µM)
[14]; Staphylococcus aureus 3055, end point after 24 hours
  MIC: 1 µg/mL (≈ 0.697 µM)
[14]; Staphylococcus aureus S13E, end point after 24 hours
  MIC: 1 µg/mL (≈ 0.697 µM)
[14]; Staphylococcus aureus V41, end point after 24 hours
  MIC: 1 µg/mL (≈ 0.697 µM)
[14]; Staphylococcus aureus X400, end point after 24 hours
  MIC: 2 µg/mL (≈ 1.39 µM)
[15]; Klebsiella pneumoniae KAE, end point after 24 hours
  MIC: > 128 µg/mL
[15]; Klebsiella pneumoniae X26, end point after 24 hours
  MIC: > 128 µg/mL
[16]; Streptococcus sp. Group D 9960, end point after 24 hours
  MIC: 4 µg/mL (≈ 2.79 µM)
[16]; Streptococcus sp. Group D X66, end point after 24 hours
  MIC: 1 µg/mL (≈ 0.697 µM)
[17]; Haemophilus influenzae (resistant) R252, end point after 24 hours
  MIC: 128 µg/mL (≈ 89.2 µM)
[17]; Haemophilus influenzae (sensitive) Holt, end point after 24 hours
  MIC: 64 µg/mL (≈ 44.6 µM)
[18]
  MIC: 2 µg/mL (≈ 1.39 µM)
[19]; Streptococcus pyogenes ATCC 10389
  MIC: 0.5 µg/mL (≈ 0.348 µM)
[19]; Streptococcus pyogenes C203
  MIC: 0.5 µg/mL (≈ 0.348 µM)
[20]; Streptococcus pneumoniae Bl-438
  MIC: 0.5 µg/mL (≈ 0.348 µM)
[20]; Streptococcus pneumoniae Park I
  MIC: 0.125 µg/mL (≈ 0.0871 µM)
[21]; Staphylococcus epidermidis 219
  MIC: 1 µg/mL (≈ 0.697 µM)
[21]; Staphylococcus epidermidis 222
  MIC: 1 µg/mL (≈ 0.697 µM)
[21]; Staphylococcus epidermidis 269
  MIC: 2 µg/mL (≈ 1.39 µM)
[21]; Staphylococcus epidermidis 270
  MIC: 2 µg/mL (≈ 1.39 µM)
[21]; Staphylococcus epidermidis 285
  MIC: 2 µg/mL (≈ 1.39 µM)
[22]; Streptococcus sp. Group B 5
  MIC: 4 µg/mL (≈ 2.79 µM)
[22]; Streptococcus sp. Group B 14
  MIC: 0.5 µg/mL (≈ 0.348 µM)
[23]; Haemophilus parainfluenzae 7901
  MIC: 64 µg/mL (≈ 44.6 µM)
[23]; Haemophilus parainfluenzae 9796
  MIC: 64 µg/mL (≈ 44.6 µM)
[24]; Staphylococcus aureus 3055
  MIC: 0.5 µg/mL (≈ 0.348 µM)
[24]; Staphylococcus aureus V102
  MIC: 1 µg/mL (≈ 0.697 µM)
[24]; Staphylococcus aureus V138
  MIC: 1 µg/mL (≈ 0.697 µM)
[24]; Staphylococcus aureus V140
  MIC: 1 µg/mL (≈ 0.697 µM)
[24]; Staphylococcus aureus X400
  MIC: 1 µg/mL (≈ 0.697 µM)
[25]; Streptococcus sp. Group D 2041
  MIC: 2 µg/mL (≈ 1.39 µM)
[25]; Streptococcus sp. Group D 2058
  MIC: 4 µg/mL (≈ 2.79 µM)
[25]; Streptococcus sp. Group D 8043
  MIC: 1 µg/mL (≈ 0.697 µM)
[25]; Streptococcus sp. Group D 9901
  MIC: 2 µg/mL (≈ 1.39 µM)
[25]; Streptococcus sp. Group D 9960
  MIC: 4 µg/mL (≈ 2.79 µM)
[25]; Streptococcus sp. Group D 12253F
  MIC: 1 µg/mL (≈ 0.697 µM)
[25]; Streptococcus sp. Group D Mx161
  MIC: 1 µg/mL (≈ 0.697 µM)
[25]; Streptococcus sp. Group D X66
  MIC: 1 µg/mL (≈ 0.697 µM)
[26]; Haemophilus influenzae 76
  MIC: 64 µg/mL (≈ 44.6 µM)
[26]; Haemophilus influenzae 312
  MIC: 128 µg/mL (≈ 89.2 µM)
[26]; Haemophilus influenzae 4842
  MIC: 32 µg/mL (≈ 22.3 µM)
[26]; Haemophilus influenzae 16836
  MIC: 128 µg/mL (≈ 89.2 µM)
[26]; Haemophilus influenzae Bond
  MIC: 64 µg/mL (≈ 44.6 µM)
[26]; Haemophilus influenzae C.L.
  MIC: 32 µg/mL (≈ 22.3 µM)
[26]; Haemophilus influenzae Mx366
  MIC: 32 µg/mL (≈ 22.3 µM)
[26]; Haemophilus influenzae Mx371
  MIC: 64 µg/mL (≈ 44.6 µM)
[27]
  MIC: 32 µg/mL (≈ 22.3 µM)
[28]
  MIC: 2 µg/mL (≈ 1.39 µM)
[29]
  MIC: 1 µg/mL (≈ 0.697 µM)
[30]; Bacteroides melaninogenicus 1856/28
  MIC: > 128 µg/mL
[30]; Bacteroides melaninogenicus 2736
  MIC: 16 µg/mL (≈ 11.1 µM)
[31]; Bacteroides fragilis 111
  MIC: 32 µg/mL (≈ 22.3 µM)
[31]; Bacteroides fragilis 1877
  MIC: 32 µg/mL (≈ 22.3 µM)
[31]; Bacteroides fragilis 1936B
  MIC: 32 µg/mL (≈ 22.3 µM)
[32]; Clostridium difficile 78
  MIC: 2 µg/mL (≈ 1.39 µM)
[32]; Clostridium difficile 107B
  MIC: 2 µg/mL (≈ 1.39 µM)
[32]; Clostridium difficile 111F
  MIC: 2 µg/mL (≈ 1.39 µM)
[32]; Clostridium difficile 1153
  MIC: 2 µg/mL (≈ 1.39 µM)
[32]; Clostridium difficile 2634
  MIC: 2 µg/mL (≈ 1.39 µM)
[32]; Clostridium difficile 3424-5B
  MIC: 2 µg/mL (≈ 1.39 µM)
[32]; Clostridium difficile 3816
  MIC: 2 µg/mL (≈ 1.39 µM)
[32]; Clostridium difficile 3950D
  MIC: 2 µg/mL (≈ 1.39 µM)
[32]; Clostridium difficile 6890
  MIC: 2 µg/mL (≈ 1.39 µM)
[32]; Clostridium difficile 8484
  MIC: 2 µg/mL (≈ 1.39 µM)
[32]; Clostridium difficile A-194
  MIC: 2 µg/mL (≈ 1.39 µM)
[32]; Clostridium difficile A-195
  MIC: 2 µg/mL (≈ 1.39 µM)
[32]; Clostridium difficile A-196
  MIC: 2 µg/mL (≈ 1.39 µM)
[32]; Clostridium difficile A-279
  MIC: 2 µg/mL (≈ 1.39 µM)
[32]; Clostridium difficile A-280
  MIC: 2 µg/mL (≈ 1.39 µM)
[32]; Clostridium difficile A-281
  MIC: 2 µg/mL (≈ 1.39 µM)
[32]; Clostridium difficile WAL-2112
  MIC: 2 µg/mL (≈ 1.39 µM)
[32]; Clostridium difficile WAL-3657
  MIC: 2 µg/mL (≈ 1.39 µM)
[32]; Clostridium difficile WAL-4268
  MIC: 2 µg/mL (≈ 1.39 µM)
[33]
  MIC: 32 µg/mL (≈ 22.3 µM)
[34]
  MIC: 16 µg/mL (≈ 11.1 µM)
[35]
  MIC: 1 µg/mL (≈ 0.697 µM)
[36]
  MIC: 1 µg/mL (≈ 0.697 µM)
